Test results reported in article PMC5218480 (PLoS ONE, 2017).

System: MV-4-11 cells
Assay: Gene expression microarray analysis (Affymetrix PrimeView) and GSEA
Format: cell-based, human
Parameters: RFU PODN (11730768_x_at) / Fold change /veh PODN (11730768_x_at) / RFU LINC00158 (11744669_a_at) / Fold change /veh LINC00158 (11744669_a_at) / RFU DUSP10 (11751237_a_at) / Fold change /veh DUSP10 (11751237_a_at) / RFU ID3 (11757404_x_at) / Fold change /veh ID3 (11757404_x_at) / RFU PLEKHG5 (11737974_s_at) / Fold change /veh PLEKHG5 (11737974_s_at) / RFU LRRC4B (11730491_at) / Fold change /veh LRRC4B (11730491_at) / RFU GIMAP4 (11747438_a_at) / Fold change /veh GIMAP4 (11747438_a_at) / RFU KRT8 (11758183_x_at) / Fold change /veh KRT8 (11758183_x_at) / RFU CNN1 (11734310_a_at) / Fold change /veh CNN1 (11734310_a_at) / RFU VPS37D (11726825_at) / Fold change /veh VPS37D (11726825_at) / RFU C10orf10 (11716522_x_at) / Fold change /veh C10orf10 (11716522_x_at) / RFU KIR2DL2 /// KIR2DL4 /// KIR2DL5A /// KIR2DL5B /// KIR2DS1 /// KIR2DS2 /// KIR2DS3 /// KIR2DS4 /// KIR3DL3 /// KIR3DL3 /// KIR3DS1 (11738374_at) / Fold change /veh KIR2DL2 /// KIR2DL4 /// KIR2DL5A /// KIR2DL5B /// KIR2DS1 /// KIR2DS2 /// KIR2DS3 /// KIR2DS4 /// KIR3DL3 /// KIR3DL3 /// KIR3DS1 (11738374_at) / RFU C1QL1 (11718748_at) / Fold change /veh C1QL1 (11718748_at) / RFU TMPRSS4 (11747572_a_at) / Fold change /veh TMPRSS4 (11747572_a_at) / RFU HAMP (11756126_x_at) / Fold change /veh HAMP (11756126_x_at) / RFU RNFT2 (11725882_a_at) / Fold change /veh RNFT2 (11725882_a_at) / RFU NR4A2 (11747474_a_at) / Fold change /veh NR4A2 (11747474_a_at) / RFU ABCC12 (11746883_a_at) / Fold change /veh ABCC12 (11746883_a_at) / RFU TMEM136 (11760407_x_at) / Fold change /veh TMEM136 (11760407_x_at) / RFU CLDN22 /// WWC2 (11732394_at) / Fold change /veh CLDN22 /// WWC2 (11732394_at) / RFU HLA-DPB1 (11760878_x_at) / Fold change /veh HLA-DPB1 (11760878_x_at) / RFU SPINT1 (11716480_a_at) / Fold change /veh SPINT1 (11716480_a_at) / RFU GAP43 (11754022_s_at) / Fold change /veh GAP43 (11754022_s_at) / RFU A4GNT (11735810_at) / Fold change /veh A4GNT (11735810_at) / RFU PRB3 (11715151_x_at) / Fold change /veh PRB3 (11715151_x_at) / RFU TUBB4B (11761932_at) / Fold change /veh TUBB4B (11761932_at) / RFU CAPN14 (11732068_a_at) / Fold change /veh CAPN14 (11732068_a_at) / RFU TMCC2 (11721928_a_at) / Fold change /veh TMCC2 (11721928_a_at) / RFU IRGQ (11745062_a_at) / Fold change /veh IRGQ (11745062_a_at) / RFU FAM174B (11720279_a_at) / Fold change /veh FAM174B (11720279_a_at) / RFU TMPRSS4 (11748680_a_at) / Fold change /veh TMPRSS4 (11748680_a_at) / RFU FAM212B (11763350_a_at) / Fold change /veh FAM212B (11763350_a_at) / RFU PLEKHG5 (11743358_a_at) / Fold change /veh PLEKHG5 (11743358_a_at) / RFU ZSCAN30 (11745921_a_at) / Fold change /veh ZSCAN30 (11745921_a_at) / RFU CMKLR1 (11741424_a_at) / Fold change /veh CMKLR1 (11741424_a_at) / RFU LOC101060620 /// MAPK8IP1 (11723275_at) / Fold change /veh LOC101060620 /// MAPK8IP1 (11723275_at) / RFU SPTSSB (11747773_x_at) / Fold change /veh SPTSSB (11747773_x_at) / RFU PRSS12 (11739890_at) / Fold change /veh PRSS12 (11739890_at) / RFU BIN1 (11741810_x_at) / Fold change /veh BIN1 (11741810_x_at) / RFU WNT11 (11732464_a_at) / Fold change /veh WNT11 (11732464_a_at) / RFU C10orf10 (11716521_a_at) / Fold change /veh C10orf10 (11716521_a_at) / RFU C5orf56 (11738089_at) / Fold change /veh C5orf56 (11738089_at) / RFU CYB561 (11721691_x_at) / Fold change /veh CYB561 (11721691_x_at) / RFU ANKRD19P (11752326_a_at) / Fold change /veh ANKRD19P (11752326_a_at) / RFU OR2T12 /// OR2T33 /// OR2T8 (11738714_s_at) / Fold change /veh OR2T12 /// OR2T33 /// OR2T8 (11738714_s_at) / RFU VCAN (11748164_a_at) / Fold change /veh VCAN (11748164_a_at) / RFU JSRP1 (11732532_at) / Fold change /veh JSRP1 (11732532_at) / RFU KRTAP10-11 (11738290_x_at) / Fold change /veh KRTAP10-11 (11738290_x_at) / RFU MYO3A (11730013_a_at) / Fold change /veh MYO3A (11730013_a_at) / RFU EBF3 (11725865_a_at) / Fold change /veh EBF3 (11725865_a_at) / RFU CAMK2N1 (11719241_x_at) / Fold change /veh CAMK2N1 (11719241_x_at) / RFU C5orf56 (11738088_a_at) / Fold change /veh C5orf56 (11738088_a_at) / RFU OLFML3 (11715873_a_at) / Fold change /veh OLFML3 (11715873_a_at) / RFU LOC100653217 /// NTM (11731650_a_at) / Fold change /veh LOC100653217 /// NTM (11731650_a_at) / RFU MAPK11 (11762145_a_at) / Fold change /veh MAPK11 (11762145_a_at) / RFU FIZ1 (11724087_x_at) / Fold change /veh FIZ1 (11724087_x_at) / RFU OASL (11726364_x_at) / Fold change /veh OASL (11726364_x_at) / RFU SOX15 (11748057_x_at) / Fold change /veh SOX15 (11748057_x_at) / RFU CD79A (11719716_a_at) / Fold change /veh CD79A (11719716_a_at) / RFU HIST1H1D (11736915_at) / Fold change /veh HIST1H1D (11736915_at) / RFU CASKIN2 (11723855_a_at) / Fold change /veh CASKIN2 (11723855_a_at) / RFU LOC730098 (11760151_x_at) / Fold change /veh LOC730098 (11760151_x_at) / RFU OR4N2 (11742367_at) / Fold change /veh OR4N2 (11742367_at) / RFU PRRT2 (11749266_a_at) / Fold change /veh PRRT2 (11749266_a_at) / RFU SNX32 (11753110_a_at) / Fold change /veh SNX32 (11753110_a_at) / RFU CDHR5 (11726645_a_at) / Fold change /veh CDHR5 (11726645_a_at) / RFU RCAN1 (11760418_a_at) / Fold change /veh RCAN1 (11760418_a_at) / RFU FAM167A (11723789_a_at) / Fold change /veh FAM167A (11723789_a_at) / RFU FAM26E (11764081_at) / Fold change /veh FAM26E (11764081_at) / RFU ISYNA1 (11749810_s_at) / Fold change /veh ISYNA1 (11749810_s_at) / RFU ACY1 (11761880_at) / Fold change /veh ACY1 (11761880_at) / RFU 11764098_at / Fold change /veh 11764098_at / RFU SAMD14 (11745864_x_at) / Fold change /veh SAMD14 (11745864_x_at) / RFU NPB (11741838_a_at) / Fold change /veh NPB (11741838_a_at) / RFU TMPRSS6 (11731388_a_at) / Fold change /veh TMPRSS6 (11731388_a_at) / RFU KRTAP10-2 (11738614_at) / Fold change /veh KRTAP10-2 (11738614_at) / RFU ARHGAP8 /// PRR5-ARHGAP8 (11727945_x_at) / Fold change /veh ARHGAP8 /// PRR5-ARHGAP8 (11727945_x_at) / RFU KRTAP5-7 /// NADSYN1 (11734609_at) / Fold change /veh KRTAP5-7 /// NADSYN1 (11734609_at) / RFU RASL12 (11751679_a_at) / Fold change /veh RASL12 (11751679_a_at) / RFU CDKN2B (11736163_a_at) / Fold change /veh CDKN2B (11736163_a_at) / RFU PRF1 (11729649_at) / Fold change /veh PRF1 (11729649_at) / RFU, ZNF638 /// ZNF638-IT1 / Fold change vs veh, ZNF638 /// ZNF638-IT1 / RFU, PANK3 / Fold change vs veh, PANK3 / RFU, SH3YL1 / Fold change vs veh, SH3YL1 / RFU, ZEB2 / Fold change vs veh, ZEB2 / RFU, NRIP1 / Fold change vs veh, NRIP1 / RFU, PTTG1IP / Fold change vs veh, PTTG1IP / RFU, CAPN2 / Fold change vs veh, CAPN2 / RFU, MED14 / Fold change vs veh, MED14 / RFU, SNORA58 / Fold change vs veh, SNORA58 / RFU, C1orf63 / Fold change vs veh, C1orf63 / RFU, LRRFIP1 / Fold change vs veh, LRRFIP1 / RFU, NDUFAF7 / Fold change vs veh, NDUFAF7 / RFU, SLC12A2 / Fold change vs veh, SLC12A2 / RFU, IBTK / Fold change vs veh, IBTK / RFU, ESF1 / Fold change vs veh, ESF1 / Fold change vs veh, TMEM50B / RFU, TAOK1 / Fold change vs veh, TAOK1 / RFU, ACBD3 / Fold change vs veh, ACBD3 / RFU, TMA16 / Fold change vs veh, TMA16 / RFU, RWDD3 / Fold change vs veh, RWDD3 / RFU, BCAT1 / Fold change vs veh, BCAT1 / RFU, EDEM3 / Fold change vs veh, EDEM3 / RFU, TMEM33 / Fold change vs veh, TMEM33 / RFU, WDR75 / Fold change vs veh, WDR75 / RFU, AHCTF1 / Fold change vs veh, AHCTF1 / RFU, TFRC / Fold change vs veh, TFRC / RFU, ZDHHC17 / Fold change vs veh, ZDHHC17 / RFU, NOM1 / Fold change vs veh, NOM1 / RFU, ARL8B / Fold change vs veh, ARL8B / RFU, ZBTB11 / Fold change vs veh, ZBTB11 / RFU, TAMM41 / Fold change vs veh, TAMM41 / RFU, KIAA1704 /// LOC100996395 / Fold change vs veh, KIAA1704 /// LOC100996395 / RFU, ING1 / Fold change vs veh, ING1 / RFU, TRMT61B / Fold change vs veh, TRMT61B / RFU, FUBP3 / Fold change vs veh, FUBP3 / RFU, TP53 / Fold change vs veh, TP53 / RFU, TNKS2 / Fold change vs veh, TNKS2 / RFU, ZFP14 / Fold change vs veh, ZFP14 / RFU, ACTR2 / Fold change vs veh, ACTR2 / RFU, PPP3R1 / Fold change vs veh, PPP3R1 / RFU, PIK3R1 / Fold change vs veh, PIK3R1 / RFU, HNRNPA1 / Fold change vs veh, HNRNPA1 / RFU, RNF170 / Fold change vs veh, RNF170 / RFU, ZNF28 / Fold change vs veh, ZNF28 / RFU, RNGTT / Fold change vs veh, RNGTT / RFU, OGT / Fold change vs veh, OGT / RFU, BRD1 / Fold change vs veh, BRD1 / RFU, MARS / Fold change vs veh, MARS / RFU, ZNF655 / Fold change vs veh, ZNF655 / RFU, FAHD1 / Fold change vs veh, FAHD1 / RFU, BDP1 / Fold change vs veh, BDP1 / RFU, LRRCC1 / Fold change vs veh, LRRCC1 / RFU, ARID1A / Fold change vs veh, ARID1A / RFU, ZNF146 / Fold change vs veh, ZNF146 / RFU, ZNF330 / Fold change vs veh, ZNF330 / RFU, GPN3 / Fold change vs veh, GPN3 / RFU, C9orf123 / Fold change vs veh, C9orf123 / RFU, N4BP2L2 / Fold change vs veh, N4BP2L2 / RFU, ARFIP1 / Fold change vs veh, ARFIP1 / RFU, FAM179B / Fold change vs veh, FAM179B / RFU, BCL10 / Fold change vs veh, BCL10 / RFU, UHRF1BP1L / Fold change vs veh, UHRF1BP1L / RFU, BET1 / Fold change vs veh, BET1 / RFU, CNOT2 / Fold change vs veh, CNOT2 / RFU, ZNF268 / Fold change vs veh, ZNF268 / Fold change vs veh, ZNF507 / RFU, DGCR2 / Fold change vs veh, DGCR2 / RFU, WDSUB1 / Fold change vs veh, WDSUB1 / Fold change vs veh, HSP90B1 /// MIR3652 / RFU, ADSS / Fold change vs veh, ADSS / RFU, GK / Fold change vs veh, GK / RFU, ZNF148 / Fold change vs veh, ZNF148 / RFU, TAF9 / Fold change vs veh, TAF9 / RFU, SLC1A5 / Fold change vs veh, SLC1A5 / RFU, SLMO2 / Fold change vs veh, SLMO2 / RFU, ABCC4 / Fold change vs veh, ABCC4 / RFU, LOC101060439 /// RAP1B / Fold change vs veh, LOC101060439 /// RAP1B / RFU, RFX7 / Fold change vs veh, RFX7 / RFU, GTPBP10 / Fold change vs veh, GTPBP10 / RFU, CNEP1R1 / Fold change vs veh, CNEP1R1 / RFU, BIVM-ERCC5 /// ERCC5 / Fold change vs veh, BIVM-ERCC5 /// ERCC5 / RFU, ILF3 / Fold change vs veh, ILF3 / RFU 11762660_at / Fold change /veh 11762660_at / RFU VCAN (11757783_s_at) / Fold change /veh VCAN (11757783_s_at) / RFU DDX43 (11728927_at) / Fold change /veh DDX43 (11728927_at) / RFU KRT8 (11758188_x_at) / Fold change /veh KRT8 (11758188_x_at) / RFU NKD1 (11759106_at) / Fold change /veh NKD1 (11759106_at) / RFU SRD5A1 (11742802_a_at) / Fold change /veh SRD5A1 (11742802_a_at) / RFU TPSAB1 /// TPSB2 (11721975_s_at) / Fold change /veh TPSAB1 /// TPSB2 (11721975_s_at) / RFU GSTM3 (11746129_a_at) / Fold change /veh GSTM3 (11746129_a_at) / RFU IL23R (11737362_x_at) / Fold change /veh IL23R (11737362_x_at) / RFU TMEM51 (11727254_a_at) / Fold change /veh TMEM51 (11727254_a_at) / RFU PIWIL2 (11732686_x_at) / Fold change /veh PIWIL2 (11732686_x_at) / RFU ORM1 (11744905_x_at) / Fold change /veh ORM1 (11744905_x_at) / RFU CCDC152 (11743942_at) / Fold change /veh CCDC152 (11743942_at) / RFU ECM1 (11717891_a_at) / Fold change /veh ECM1 (11717891_a_at) / RFU IL23R (11748794_a_at) / Fold change /veh IL23R (11748794_a_at) / RFU TNFAIP8L3 (11732012_x_at) / Fold change /veh TNFAIP8L3 (11732012_x_at) / RFU MBOAT4 (11741988_at) / Fold change /veh MBOAT4 (11741988_at) / RFU 11764193_at / Fold change /veh 11764193_at / RFU TMEM53 (11763286_at) / Fold change /veh TMEM53 (11763286_at) / RFU MAGEB2 (11727129_at) / Fold change /veh MAGEB2 (11727129_at) / RFU TMEM200A (11744735_a_at) / Fold change /veh TMEM200A (11744735_a_at) / RFU CCDC152 (11751479_a_at) / Fold change /veh CCDC152 (11751479_a_at) / RFU FAM211A (11726209_a_at) / Fold change /veh FAM211A (11726209_a_at) / RFU RGS16 (11746705_a_at) / Fold change /veh RGS16 (11746705_a_at) / RFU VCAN (11755009_s_at) / Fold change /veh VCAN (11755009_s_at) / RFU RHOB (11743442_s_at) / Fold change /veh RHOB (11743442_s_at) / RFU RGS16 (11720943_a_at) / Fold change /veh RGS16 (11720943_a_at) / RFU RGS16 (11720944_at) / Fold change /veh RGS16 (11720944_at) / RFU, VPS4B / Fold change vs veh, VPS4B / RFU, CREB1 / Fold change vs veh, CREB1 / RFU, DNAJC13 / Fold change vs veh, DNAJC13 / RFU, GNAQ / Fold change vs veh, GNAQ / RFU, CDK5R1 / Fold change vs veh, CDK5R1 / RFU, ZRANB3 / Fold change vs veh, ZRANB3 / RFU, CUL4A / Fold change vs veh, CUL4A / RFU, CCNY / Fold change vs veh, CCNY / RFU, UFL1 / Fold change vs veh, UFL1 / RFU, COG3 / Fold change vs veh, COG3 / RFU, DIAPH2 / Fold change vs veh, DIAPH2 / RFU, SKA2 / Fold change vs veh, SKA2 / RFU, AFF3 / Fold change vs veh, AFF3 / RFU, LMF1 / Fold change vs veh, LMF1 / RFU, IPO11 / Fold change vs veh, IPO11 / RFU, DFFB / Fold change vs veh, DFFB / RFU, FOXP1 / Fold change vs veh, FOXP1 / RFU, CARD8 / Fold change vs veh, CARD8 / RFU, STRN3 / Fold change vs veh, STRN3 / RFU, ADK / Fold change vs veh, ADK / RFU, RASSF2 / Fold change vs veh, RASSF2 / RFU, WIPF1 / Fold change vs veh, WIPF1 / RFU, LARP1B / Fold change vs veh, LARP1B / RFU, RASA1 / Fold change vs veh, RASA1 / RFU, RB1 / Fold change vs veh, RB1 / RFU, PPFIA1 / Fold change vs veh, PPFIA1 / RFU, MAT2A / Fold change vs veh, MAT2A / RFU, CCT5 / Fold change vs veh, CCT5 / RFU, WDR92 / Fold change vs veh, WDR92 / RFU, CUX1 / Fold change vs veh, CUX1 / RFU, TTC7A / Fold change vs veh, TTC7A / RFU, TMEM135 / Fold change vs veh, TMEM135 / RFU, DEPTOR / Fold change vs veh, DEPTOR / RFU, CPM / Fold change vs veh, CPM / RFU, DNAJB6 / Fold change vs veh, DNAJB6 / RFU, CACNA2D3 / Fold change vs veh, CACNA2D3 / RFU, DTX4 / Fold change vs veh, DTX4 / RFU, TFCP2 / Fold change vs veh, TFCP2 / RFU, GMCL1 /// GMCL1P1 / Fold change vs veh, GMCL1 /// GMCL1P1 / RFU, AEBP2 / Fold change vs veh, AEBP2 / RFU, SNHG1 /// SNORD22 /// SNORD25 /// SNORD26 /// SNORD27 /// SNORD28 /// SNORD29 /// SNORD31 / Fold change vs veh, SNHG1 /// SNORD22 /// SNORD25 /// SNORD26 /// SNORD27 /// SNORD28 /// SNORD29 /// SNORD31 / Fold change (Aza/veh), C12orf56 (ProbeSet 11735607_a_at) / Fold change (ACY-1035/veh), C12orf56 (ProbeSet 11735607_a_at) / Fold change (Aza/veh), FGFR1OP (ProbeSet 11751329_s_at) / Fold change (ACY-1035/veh), FGFR1OP (ProbeSet 11751329_s_at) / Fold change (Aza/veh), VPS36 (ProbeSet 11739960_a_at) / Fold change (ACY-1035/veh), VPS36 (ProbeSet 11739960_a_at) / RFU SYPL1 (11715823_x_at) / Fold change /veh SYPL1 (11715823_x_at) / RFU IGFBP7 (11715501_s_at) / Fold change /veh IGFBP7 (11715501_s_at) / RFU REEP3 (11722064_at) / Fold change /veh REEP3 (11722064_at) / RFU IGLL1 (11728026_x_at) / Fold change /veh IGLL1 (11728026_x_at): dose or concentration left out as unconfirmed
Details: MV-4-11 cells, 48 hours

## Nc1ccc(-c2cccs2)cc1NC(=O)c1ccc2c(c1)cc(C1CC1)n2CCN1CCOCC1 [ACY-1035]
  Fold change /veh TMEM51 (11727254_a_at): 0.98
